Assays:
Rat Hepatocytes [1] = assay: Hepatocyte assay of Compound II, rat; assay type: in vitro ADME
Method: (§1) The stock solutions (10 mM in acetonitrile) for the test compounds were diluted in the incubation media to a working concentration of 100 μM (2×). Thawing frozen hepatocytes was followed by performing Percoll purification as described in manufacturer's manual. Primary hepatocytes were resuspended in incubation media and viability was measured using trypan blue exclusion method. The initial viability score was registered as ‘T0’ (time point of 0 minute), and viability was required to be at least ˜70% at this point for the experiment to continue. Cells were washed a second time (60 g for 5 minutes) with supplemented DMEM and the final concentration was adjusted to […] (2×). Samples were set up in 48-well plates, using 2 wells per each time point. A trypan blue well was also set up for viability analysis at the end of study (T=120 min). 100 μl of the 2× drug solution was combined with 100 μl of the 2× hepatocyte suspension. Final concentration was […] (200,000 cells/well) and 50 μM compound. Final concentration of acetonitrile was 0.5%. […]
(§2) The mass spectrometers were operated in EMS mode in order to detect all possible metabolites. […] Intensity of putative metabolite was semi-quantitated using the peak area of the metabolites in XIC, which was subtracted with the peak area of time zero control at the same retention time with the metabolites.

[2] = Phase I and II microsome reactions (+UDPGA) of Compound II, monkey; assay type: in vitro ADME; conditions: Monkey liver microsomes (+UDPGA)
Method: (§3) For microsome reactions performed under conditions allowing for both phase I and II metabolism, the initial procedure and reaction conditions were followed similarly as described above. Additional cofactors were also included in each reaction to maximize the potential for in vitro glucuronidation to occur. UDPGA was added at a final concentration of 5.0 mM. Saccharolactone (β-glucuronidase inhibitor) and alamethicin (pore forming peptide) were added to each reaction at a final concentration of 5.0 mM and 50 μg/ml, respectively.
(§4) Each 200 μl microsomal reaction solution was composed of: 66 μl of 0.2 M KPO4 buffer, (pH 7.4); 50 μl of NRS solution (as described above); 66 μl of UDPGA (15 mM stock); 5.0 μl of saccharolactone (200 mM stock); 0.5 μl of alamethicin (20 mg/ml); 0.6 μl of MgCl2 (1 M stock); and 10 μl of microsomes (20 mg/ml stock).
(§5) At the end of incubation, 100 μl of reaction solution under incubation was transferred to a sample well containing 100 μl of ice cold acetonitrile to quench the reaction. […]
as §2

[3] = Phase I microsome reactions of Compound II, human; assay type: in vitro ADME; conditions: Human liver microsomes; not absolutely quantitative (n = 2)
Method: (§6) Test compound stock solutions were prepared in acetonitrile at 10 mM, 200 times (200×) the final concentration. The stock solutions were added in incubation mixtures to obtain the final drug concentration of 50 μM, containing 0.5% acetonitrile. A concentration of 50 μM was utilized to allow for detection of possible minor metabolites (select studies were run at 10 μM for confirmatory purposes). Human, monkey, dog, rat, mouse microsomes were all utilized at a final concentration of 1.0 mg/ml. Duplicate wells were used for each time point (0 and 120 minutes). Incubation was conducted at 37° C. in a shaking water bath. The final volume for each reaction was 200 μl, composed of: 66 μl of 0.2 M KPO4 buffer, (pH 7.4); 73 μl of H2O, 10 μl of 20 mg/ml microsome stock; 1.0 μl of 10 mM compound stock, and 50 μl of NRS solution. The NRS solution consisting of glucose-6-phosphate dehydrogenase, NADP+, MgCl2, and glucose-6-phosphate, was prepared as described in manufacturer's instructions. […]
as §2

[4] = Phase I and II microsome reactions (+UDPGA) of Compound II, mouse; assay type: in vitro ADME; conditions: Mouse liver microsomes (+UDPGA)
Method: as §3, §4, §5, §2

monkey hepatocytes = assay: Hepatocyte assay of Compound II, monkey; assay type: in vitro ADME
Method: as §1, §2

[5] = Phase I and II microsome reactions (+UDPGA) of Compound II, human; assay type: in vitro ADME; conditions: Human liver microsomes (+UDPGA)
Method: as §3, §4, §5, §2

human hepatocytes = assay: Hepatocyte assay of Compound II, human; assay type: in vitro ADME
Method: as §1, §2

[6] = Phase I microsome reactions of Compound II, mouse; assay type: in vitro ADME; conditions: Mouse liver microsomes; not absolutely quantitative (n = 2)
Method: as §6, §2

[7] = Phase I microsome reactions of Compound II, monkey; assay type: in vitro ADME; conditions: Monkey liver microsomes; not absolutely quantitative (n = 2)
Method: as §6, §2

[8] = Phase I microsome reactions of Compound II, rat; assay type: in vitro ADME; conditions: Rat liver microsomes; not absolutely quantitative (n = 2)
Method: as §6, §2

[9] = Phase I and II microsome reactions (+UDPGA) of Compound II, dog; assay type: in vitro ADME; conditions: Dog liver microsomes (+UDPGA)
Method: as §3, §4, §5, §2

mouse hepatocytes = assay: Hepatocyte assay of Compound II, mouse; assay type: in vitro ADME
Method: as §1, §2

[10] = Phase I microsome reactions of Compound II, dog; assay type: in vitro ADME; conditions: Dog liver microsomes; not absolutely quantitative (n = 2)
Method: as §6, §2

[11] = Phase I and II microsome reactions (+UDPGA) of Compound II, rat; assay type: in vitro ADME; conditions: Rat liver microsomes (+UDPGA)
Method: as §3, §4, §5, §2

dog hepatocytes = assay: Hepatocyte assay of Compound II, dog; assay type: in vitro ADME
Method: as §1, §2

[12] = In vitro metabolites of Compound I in rat liver microsomes; assay type: in vitro ADME; conditions: metabolite formed from Compound I
Rat Hepatocytes [13] = assay: In vitro metabolites of Compound I in rat hepatocytes; assay type: in vitro ADME; conditions: metabolite formed from Compound I
CYP2C9 = CYP2C9 induction in primary human hepatocytes; assay type: in vitro ADME
Method: (§7) Cytochrome P450 enzyme inhibition was measured using human, cDNA-expressed CYP3A4, 2D6, 2C19, 2C9, and 1A2 enzymes. Analogues of the model substrate coumarin were utilized for each isozyme, at a concentration near the apparent Km of this substrate. Compound stocks were tested using an 8-point dose-response curve in duplicate (ranging from […]). […] For microsome-based CYP inhibition measurements, all substrates were utilized at the approximate Km value. […] Duplicate wells in the induction assay were used to measure both functionality and expression of the CYP enzyme.

[14] = Permeability and efflux potential across Caco-2 monolayers; parameters: Papp A→B / Papp B→A: dose or concentration left out as unconfirmed; conditions: human
Method: (§8) Permeability (and efflux potential) was measured in the Apical (pH 6.5) to Basolateral (pH 7.4) and Basolateral (pH 7.4) to Apical (pH 6.5) directions across polarized, Caco-2 epithelial monolayers. Compound stocks were tested at a final concentration of […]. The concentration of drug in the receiver well was measured by LC/MS/MS using a standard curve.

[15] = system: Caco-2 epithelial monolayers; assay: as above; parameters: Papp A→B / Papp B→A: dose or concentration left out as unconfirmed
Method: as §8

[16] = Metabolic stability in primary monkey hepatocytes; assay type: in vitro ADME
[17] = system: primary monkey hepatocytes; assay: Metabolic stability in primary monkey hepatocytes; assay type: in vitro ADME
CYP3A4 = CYP3A4 induction in primary human hepatocytes; assay type: in vitro ADME
Method: as §7

[18] = Metabolic stability in human liver microsomes; assay type: in vitro ADME
Method: Human liver microsomes and hepatocytes were utilized at a final concentration of 1.0 mg/ml and 1×10^6 cells/ml, respectively. Duplicate wells were used for each time point (0, 5, 10, 30, and 60 minutes). The concentrations of parent drug remaining in each well were analyzed on an MDS/Sciex API4000 Q Trap system with electrospray ionization (ESI) in the positive and/or negative SIM mode, depending on the test compound(s). […] For hepatocyte assays, cell viability was also monitored at each time point (from replicate wells) using the Trypan Blue exclusion method.

[19] = Human Liver Microsomes, Phase I
[20] = Human Liver Microsomes, Phase I + II

With `N#Cc1ccc(N)cc1Cl` [Compound 151] the “Relative Percent of XIC for Phase I and II Metabolites of Compound II” value (Rat Hepatocytes [1]) was 0.9%, the “Relative Percent of XIC for Phase I and Glucuronide Metabolites of Compound II” value [2] was 1.6% and the “Relative Percent of Extracted Ion Chromatogram (XIC) for Phase I metabolites of Compound II” value [3] was 3%. The “Relative Percent of XIC for Phase I and Glucuronide Metabolites of Compound II” value [4] was 1.1%, the “Relative Percent of XIC for Phase I and II Metabolites of Compound II” value (monkey hepatocytes) was 2.2% and the “Relative Percent of XIC for Phase I and Glucuronide Metabolites of Compound II” value [5] was 0.8%. For the same compound, the “Relative Percent of XIC for Phase I and II Metabolites of Compound II” value (human hepatocytes) was 0.5%, the “Relative Percent of Extracted Ion Chromatogram (XIC) for Phase I metabolites of Compound II” value [6] was 4% and the “Relative Percent of Extracted Ion Chromatogram (XIC) for Phase I metabolites of Compound II” value [7] was 4%. The “Relative Percent of Extracted Ion Chromatogram (XIC) for Phase I metabolites of Compound II” value [8] was 4%, the “Relative Percent of XIC for Phase I and Glucuronide Metabolites of Compound II” value [9] was 2.9% and the “Relative Percent of XIC for Phase I and II Metabolites of Compound II” value (mouse hepatocytes) was 0.8%. For the same compound, the “Relative Percent of Extracted Ion Chromatogram (XIC) for Phase I metabolites of Compound II” value [10] was 6%, the “Relative Percent of XIC for Phase I and Glucuronide Metabolites of Compound II” value [11] was 1.4% and the “Relative Percent of XIC for Phase I and II Metabolites of Compound II” value (dog hepatocytes) was 4.7%.
With `C[C@@](COc1ccc(C#N)cc1)(OC1OC(C(=O)O)C(O)C(O)C1O)C(=O)Nc1ccc(C#N)c(C(F)(F)F)c1` (stereo partly drawn) [Compound 564] the “relative abundance of in vitro metabolites of Compound I (m/z 388)” value [12] was 1.92 and the “relative abundance of in vitro metabolites of Compound I (m/z 388)” value (Rat Hepatocytes [13]) was 0.37.
In the case of `C[C@](O)(COc1ccc(C#N)cc1)C(=O)Nc1ccc(C#N)c(C(F)(F)F)c1` [Compound I, (S)—N-(4-cyano-3-(trifluoromethyl)phenyl)-3-(4-cyanophenoxy)-2-hydroxy-2-methylpropanamide], the “induction of CYP2C9 activity” value (CYP2C9) is reported as “does not induce”, the Papp B→A ([14]; Caco-2) is reported as 29 ×10⁻⁶ cm/s and the Papp A→B ([14]; Caco-2, Permeability Classification, classified from Papp (A-B)) is reported as over 10 ×10⁻⁶ cm/s. For the same compound, the efflux potential ([15]; Caco-2 permeability assays) was “low”, the “Permeability Classification” value ([15]; classified from Papp (A-B)) was “high” and the CLint scaled [16] was under 1 mL/min/kg. For the same compound, the Half-Life [17] was “Stable”, the “induction of CYP3A4 activity” value (CYP3A4) was “does not induce” and the “Half-Life Phase I” value [18, 19] was “Stable”. For the same compound, the microsomal CLint [18, 19] was under 1000 µL/min/mg, the “CLint Phase I + II” value [18, 20] was under 1 mL/min/mg and the “Half-Life Phase I + II” value [18, 20] was “Stable”. For the same compound, the “in vitro half-life (stability in words)” value ([18]; microsomal and hepatocyte assays, both phase I and phase I/II metabolic conditions) was “mostly stable”.
